Test results reported in publication PMC9973354 (mBio, 2022).
Where “and” joins values, the source holds several entries; their conditions need not be identical. Identical values can stand only once. Starred links: 1 amine or outer side, 2 acyl side, 3 side chain; linkers in the order of their positions; H or OH if unused. Positions of bridges follow the written chain, without caps; N, C: chain ends. Non-standard residues stand in square brackets, D forms with d. Residues, ends and D or L forms follow the SMILES beside them. ξ: configuration not given here. X1 = O=C([C@@H]1CCN=C2C(N[*:1])=Cc3cc(O)c(O)cc3N21)[*:2]; ξOrn(N(OH)CHO) = NC(CCCN(O)C=O)C(=O)O; Suc = O=C(CCC(=O)[*:2])[*:1]; ξK = NCCCCC(N)C(=O)O; ξS = NC(CO)C(=O)O

How the values were obtained:
[1] = molecular target: T1, FpvB R191A R648C (Pseudomonas aeruginosa, UniProt A0A0H2ZFZ5, R191A/R648C); assay: Whole-cell fluorescence quenching, FpvB R191A R648C; type: binding; settings: FpvB R191A R648C
T1 sequence (A0A0H2ZFZ5 23-802 R191A/R648C): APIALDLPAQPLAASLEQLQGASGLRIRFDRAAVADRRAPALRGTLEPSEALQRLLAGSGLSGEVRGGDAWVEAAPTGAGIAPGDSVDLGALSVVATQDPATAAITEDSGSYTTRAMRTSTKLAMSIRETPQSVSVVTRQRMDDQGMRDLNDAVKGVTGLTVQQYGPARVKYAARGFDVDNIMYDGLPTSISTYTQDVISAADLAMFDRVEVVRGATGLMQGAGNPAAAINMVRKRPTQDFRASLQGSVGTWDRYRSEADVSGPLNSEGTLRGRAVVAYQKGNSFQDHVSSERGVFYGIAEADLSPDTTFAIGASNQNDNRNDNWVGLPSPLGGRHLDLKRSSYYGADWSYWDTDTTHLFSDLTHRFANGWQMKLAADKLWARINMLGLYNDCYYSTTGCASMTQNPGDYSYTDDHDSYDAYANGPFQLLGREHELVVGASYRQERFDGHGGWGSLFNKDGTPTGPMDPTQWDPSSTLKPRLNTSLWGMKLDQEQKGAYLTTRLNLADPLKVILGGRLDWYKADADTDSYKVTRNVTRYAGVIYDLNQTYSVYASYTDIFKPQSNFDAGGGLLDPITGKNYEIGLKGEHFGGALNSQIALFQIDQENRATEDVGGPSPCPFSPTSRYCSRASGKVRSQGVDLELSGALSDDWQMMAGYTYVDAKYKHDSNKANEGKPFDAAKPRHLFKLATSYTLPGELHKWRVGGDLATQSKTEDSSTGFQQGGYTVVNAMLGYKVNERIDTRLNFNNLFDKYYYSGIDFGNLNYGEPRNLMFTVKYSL
Procedure: (§1) Quenching assays with the two xenosiderophores were repeated for the quadruple TBDT mutant expressing WT FpvB, FpvB R191A R648C, or W347V R648C.
(§2) Cells were cultured overnight in LB with carbenicillin (200 μg/mL) at 37°C with shaking at 200 rpm. Cells were subcultured (1:200 dilution) in 10:90 plus 2% arabinose for 4 h without carbenicillin at 37°C with shaking at 200 rpm. Cells were harvested by centrifugation for 5 min and 6,000 × g and resuspended in sterile 1× phosphate-buffered saline (PBS) (pH 7.4); 1× PBS was made from a 10× stock (80 g NaCl, 2 g KCl, 26.8 g Na2 HPO4-7H2O, 2.4 g KH2PO4 in 1 L of deionized H2O) with 10 μM Alexa Fluor 594 C5 maleimide for microscopy or fluorescein-5-maleimide for fluorescence quenching and recovery assays and incubated in the dark at room temperature for 30 min on a shaking incubator at 37°C (200 rpm). Excess dye was quenched with 1 mM dithiothreitol (DTT) (Sigma) to stop the reaction. Cells were washed 3× with PBS. For fluorescence recovery assays, cells were incubated with 1× PBS plus 0.4% glucose at 37°C with shaking at 200 rpm. Glucose was prepared as a 20% stock (wt/vol) in 1× PBS and filter sterilized. Cells were spun down and washed 3× with 1× PBS and resuspended in 1× PBS for quenching assays and 1× PBS plus 0.4% glucose for fluorescence recovery assays.
(§3) For fluorescence quenching and recovery assays, cells were diluted to an OD600 of 0.1 for both types of assays, and 148 μL was added into wells of a 96-well black plate (Corning). Fluorescence was recorded for 5 min at 1-min intervals at 37°C (BioTek Neo; excitation, 494 nm; emission, 520 nm). After 5 min, 2 μL of each serial dilution for ferrioxamine-Fe^3+, ferrichrome-Fe^3+, and pyoverdine-Fe^3+ or DMSO for vehicle controls was added to each well. Fluorescence was recorded immediately for quenching assays and for 1 h at 1-min intervals for fluorescence recovery assays. Background fluorescence was subtracted from all fluorescence readings and 1-F/F0 was used to calculate the degree of quenching, where F0 is the initial fluorescence. Kd was calculated using GraphPad Prism using a one-site specific binding model or a two-site model. For fluorescence recovery assays, background was subtracted from all fluorescence readings and F/F0 expressed as a percent of control was plotted versus time.

[2] = molecular target: T2, FpvB W347V R648C (Pseudomonas aeruginosa, UniProt A0A0H2ZFZ5, R648C/W347V); assay: Whole-cell fluorescence quenching, FpvB W347V R648C; type: binding; settings: FpvB W347V R648C
T2 sequence (A0A0H2ZFZ5 23-802 W347V/R648C): T1 sequence (A0A0H2ZFZ5 23-802 R191A/R648C)
Procedure: as §1, §2, §3

[3] = test system: PA14 ΔfpvA ΔfpvB pHERD20T-fpvB; assay: Checkerboard assay TS and siderophores, FpvB expressed; type: cell-based, Pseudomonas aeruginosa; settings: 10:90 + 2% arabinose
Description: We investigated this hypothesis by treating the ΔfpvA ΔfpvB mutant complemented with fpvA or fpvB with TS and pyoverdine-Fe^3+. If pyoverdine competes with TS for the same binding site in the transporter, a reduction in TS susceptibility would be expected, as competition would decrease entry of the antibiotic into the cell. TS susceptibility decreased >8-fold with increasing concentrations of pyoverdine-Fe^3+ when FpvA was expressed (see Fig. S2A in the supplemental material).
Supplementary file : FIG S2 Checkerboard assays of the PA14 ΔfpvA ΔfpvB strain complemented with fpvA and fpvB in trans with TS and siderophores. […] Checkerboards of the PA14 ΔfpvA ΔfpvB pHERD20T-fpvB strain with TS and enterobactin (G), ferrioxamine E (H), and arthrobactin (I). Results are averaged from three independent biological replicates. Cells in the assay were grown in 10:90 + 2% arabinose. Download FIG S2, EPS file, 2.2 MB.
Checkerboards (8 rows by 8 columns) were conducted as previously described in a 96-well plate (Nunc) ([13], [14]). TS at 75× the final concentration dissolved in DMSO was added in columns from bottom to top in increasing concentrations. […] The next day, the OD600 was determined with a plate reader (Thermo Scientific) and normalized to percent of growth of the vehicle control (DMSO) after subtracting the OD600 from blank media.

[4] = one-site model, read-out: Kd (converted)

Structure (SMILES) | affinity (Kd not reached, no saturation at highest concentration) [1] | affinity (Kd not reached, no saturation at highest concentration) [2] | Kd [1, 4] | Kd [2, 4] [µM] | effect of siderophore on TS susceptibility [3]
NCCCCC(NC(=O)C(CO)NC(=O)[C@@H]1CCN=C2C(NC(=O)CCC(=O)O)=Cc3cc(O)c(O)cc3N21)C(=O)NCC(=O)NC(CCCN(O)C=O)C(=O)NC1CCCCNC(=O)C(CO)NC(=O)C(CCCN(O)C=O)NC1=O (some centres unmarked) [pyoverdine] (Suc-[X1][ξS][ξK]G[ξOrn(N(OH)CHO)][ξK][ξOrn(N(OH)CHO)][ξS]; lactam 6-C) | reduced affinity | reduced affinity |  |  | 
CC(=O)N(O)CCCCCNC(=O)CCC(=O)N(O)CCCCCNC(=O)CCC(=O)N(O)CCCCCN [ferrioxamine B] |  |  | 535 µM and 480 µM | 874 | antagonized TS susceptibility
